In ChEMBL document CHEMBL1201862, “PubChem BioAssay data set” (2004):
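Cells were grown in 96-well plates and exposed to each compound for 48 hours at five concentrations; endpoints were interpolated linearly between bracketing concentrations, or set to the highest concentration if not reached. GI50 is the concentration that inhibits growth by half.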 Active and inactive are the calls of the source. Cut-off read from the data, not from the text of the source: active = GI50 up to about 1.1 µM and inactive = higher.

Key:
Assay in all cases: NCI tumour cell line growth inhibition, 48 h
786-0 = test system: 786-0
A498 = test system: A498
A549 = test system: A549
ACHN = test system: ACHN
CAKI-1 = test system: CAKI-1
CCRF-CEM = test system: CCRF-CEM
COLO 205 = test system: COLO 205
DU-145 = test system: DU-145
EKVX = test system: EKVX
HCT-116 = test system: HCT-116
HL-60 = test system: HL-60
HOP-62 = test system: HOP-62
HOP-92 = test system: HOP-92
HT-29 = test system: HT-29
Hs-578T = test system: Hs-578T
IGROV-1 = test system: IGROV-1
K562 = test system: K562
KM12 = test system: KM12
LOX IMVI = test system: LOX IMVI
M14 = test system: M14
MCF7 = test system: MCF7
MDA-MB-231 = test system: MDA-MB-231
MDA-MB-435 = test system: MDA-MB-435
MDA-N = test system: MDA-N
MOLT-4 = test system: MOLT-4
Malme-3M = test system: Malme-3M
NCI-H226 = test system: NCI-H226
NCI-H23 = test system: NCI-H23
NCI-H460 = test system: NCI-H460
NCI-H522 = test system: NCI-H522
NCI/ADR-RES = test system: NCI/ADR-RES
OVCAR-3 = test system: OVCAR-3
OVCAR-4 = test system: OVCAR-4
OVCAR-5 = test system: OVCAR-5
OVCAR-8 = test system: OVCAR-8
PC-3 = test system: PC-3
RPMI-8226 = test system: RPMI-8226
RXF 393 = test system: RXF 393
SF-268 = test system: SF-268
SF-295 = test system: SF-295
SF-539 = test system: SF-539
SK-MEL-28 = test system: SK-MEL-28
SK-MEL-5 = test system: SK-MEL-5
SK-OV-3 = test system: SK-OV-3
SN12C = test system: SN12C
SNB-19 = test system: SNB-19
SNB-75 = test system: SNB-75
SR = test system: SR
SW-620 = test system: SW-620
T47D = test system: T47D
TK-10 = test system: TK-10
UACC-257 = test system: UACC-257
UO-31 = test system: UO-31
HCC 2998 = test system: HCC 2998
HCT-15 = test system: HCT-15
SK-MEL-2 = test system: SK-MEL-2
U-251 = test system: U-251
UACC-62 = test system: UACC-62
BT-549 = test system: BT-549

CC(=O)OCCn1cnc2c(NCC=C(C)C)ncnc21
GI50 (786-0): > 100 µM (inactive)
GI50 (A498): > 100 µM (inactive)
GI50 (A549): > 100 µM (inactive)
GI50 (ACHN): > 100 µM (inactive)
GI50 (CAKI-1): > 100 µM (inactive)
GI50 (CCRF-CEM): > 100 µM (inactive)
GI50 (COLO 205): > 100 µM (inactive)
GI50 (DU-145): > 100 µM (inactive)
GI50 (EKVX): > 100 µM (inactive)
GI50 (HCT-116): > 100 µM (inactive)
GI50 (HL-60): > 100 µM (inactive)
GI50 (HOP-62): > 100 µM (inactive)
GI50 (HOP-92): > 100 µM (inactive)
GI50 (HT-29): > 100 µM (inactive)
GI50 (Hs-578T): > 100 µM (inactive)
GI50 (IGROV-1): > 100 µM (inactive)
GI50 (K562): > 100 µM (inactive)
GI50 (KM12): > 100 µM (inactive)
GI50 (LOX IMVI): > 100 µM (inactive)
GI50 (M14): > 100 µM (inactive)
GI50 (MCF7): > 100 µM (inactive)
GI50 (MDA-MB-231): > 100 µM (inactive)
GI50 (MDA-MB-435): > 100 µM (inactive)
GI50 (MDA-N): > 100 µM (inactive)
GI50 (MOLT-4): > 100 µM (inactive)
GI50 (Malme-3M): > 100 µM (inactive)
GI50 (NCI-H226): > 100 µM (inactive)
GI50 (NCI-H23): > 100 µM (inactive)
GI50 (NCI-H460): > 100 µM (inactive)
GI50 (NCI-H522): > 100 µM (inactive)
GI50 (NCI/ADR-RES): > 100 µM (inactive)
GI50 (OVCAR-3): > 100 µM (inactive)
GI50 (OVCAR-4): > 100 µM (inactive)
GI50 (OVCAR-5): > 100 µM (inactive)
GI50 (OVCAR-8): > 100 µM (inactive)
GI50 (PC-3): > 100 µM (inactive)
GI50 (RPMI-8226): > 100 µM (inactive)
GI50 (RXF 393): > 100 µM (inactive)
GI50 (SF-268): > 100 µM (inactive)
GI50 (SF-295): > 100 µM (inactive)
GI50 (SF-539): > 100 µM (inactive)
GI50 (SK-MEL-28): > 100 µM (inactive)
GI50 (SK-MEL-5): > 100 µM (inactive)
GI50 (SK-OV-3): > 100 µM (inactive)
GI50 (SN12C): > 100 µM (inactive)
GI50 (SNB-19): > 100 µM (inactive)
GI50 (SNB-75): > 100 µM (inactive)
GI50 (SR): > 100 µM (inactive)
GI50 (SW-620): > 100 µM (inactive)
GI50 (T47D): > 100 µM (inactive)
GI50 (TK-10): > 100 µM (inactive)
GI50 (UACC-257): > 100 µM (inactive)
GI50 (UO-31): > 100 µM (inactive)

C(=C\C(SCc1ccccc1)SCc1ccccc1)/c1ccccc1
GI50 (786-0): > 10 µM (inactive)
GI50 (A498): > 10 µM (inactive)
GI50 (A549): > 10 µM (inactive)
GI50 (ACHN): > 10 µM (inactive)
GI50 (CAKI-1): > 10 µM (inactive)
GI50 (CCRF-CEM): > 10 µM (inactive)
GI50 (COLO 205): > 10 µM (inactive)
GI50 (DU-145): > 10 µM (inactive)
GI50 (EKVX): > 10 µM (inactive)
GI50 (HCC 2998): > 10 µM (inactive)
GI50 (HCT-116): > 10 µM (inactive)
GI50 (HCT-15): > 10 µM
GI50 (HL-60): > 10 µM (inactive)
GI50 (HOP-62): > 10 µM (inactive)
GI50 (HOP-92): > 10 µM (inactive)
GI50 (HT-29): > 10 µM (inactive)
GI50 (Hs-578T): > 10 µM (inactive)
GI50 (IGROV-1): > 10 µM (inactive)
GI50 (K562): > 10 µM (inactive)
GI50 (KM12): > 10 µM (inactive)
GI50 (LOX IMVI): > 10 µM (inactive)
GI50 (M14): > 10 µM (inactive)
GI50 (MCF7): > 10 µM (inactive)
GI50 (MDA-MB-231): > 10 µM (inactive)
GI50 (MDA-N): > 10 µM (inactive)
GI50 (MOLT-4): > 10 µM (inactive)
GI50 (Malme-3M): > 10 µM (inactive)
GI50 (NCI-H226): > 10 µM (inactive)
GI50 (NCI-H23): > 10 µM (inactive)
GI50 (NCI-H460): > 10 µM (inactive)
GI50 (NCI-H522): > 10 µM (inactive)
GI50 (NCI/ADR-RES): > 10 µM (inactive)
GI50 (OVCAR-3): > 10 µM (inactive)
GI50 (OVCAR-4): > 10 µM (inactive)
GI50 (OVCAR-8): > 10 µM (inactive)
GI50 (PC-3): > 10 µM (inactive)
GI50 (RPMI-8226): > 10 µM (inactive)
GI50 (RXF 393): > 10 µM (inactive)
GI50 (SF-268): > 10 µM (inactive)
GI50 (SF-295): > 10 µM (inactive)
GI50 (SF-539): > 10 µM (inactive)
GI50 (SK-MEL-28): > 10 µM (inactive)
GI50 (SK-MEL-2): > 10 µM (inactive)
GI50 (SK-MEL-5): > 10 µM (inactive)
GI50 (SK-OV-3): > 10 µM (inactive)
GI50 (SN12C): > 10 µM (inactive)
GI50 (SNB-19): > 10 µM (inactive)
GI50 (SNB-75): > 10 µM (inactive)
GI50 (SR): > 10 µM (inactive)
GI50 (SW-620): > 10 µM (inactive)
GI50 (T47D): > 10 µM (inactive)
GI50 (TK-10): > 10 µM (inactive)
GI50 (U-251): > 10 µM (inactive)
GI50 (UACC-257): > 10 µM (inactive)
GI50 (UACC-62): > 10 µM (inactive)
GI50 (UO-31): > 10 µM (inactive)

O=C1NC2NC3NC(=O)NC3NC2N1 (centres undefined)
GI50 (786-0): > 100 µM (inactive)
GI50 (A498): > 100 µM (inactive)
GI50 (A549): > 100 µM (inactive)
GI50 (ACHN): > 100 µM (inactive)
GI50 (BT-549): > 100 µM (inactive)
GI50 (CAKI-1): > 100 µM (inactive)
GI50 (CCRF-CEM): > 100 µM (inactive)
GI50 (COLO 205): > 100 µM (inactive)
GI50 (DU-145): > 100 µM (inactive)
GI50 (EKVX): > 100 µM (inactive)
GI50 (HCT-116): > 100 µM (inactive)
GI50 (HL-60): > 100 µM (inactive)
GI50 (HOP-62): > 100 µM (inactive)
GI50 (HOP-92): > 100 µM (inactive)
GI50 (HT-29): > 100 µM (inactive)
GI50 (IGROV-1): > 100 µM (inactive)
GI50 (K562): > 100 µM (inactive)
GI50 (KM12): > 100 µM (inactive)
GI50 (LOX IMVI): > 100 µM (inactive)
GI50 (M14): > 100 µM (inactive)
GI50 (MCF7): > 100 µM (inactive)
GI50 (MDA-MB-231): > 100 µM (inactive)
GI50 (MDA-MB-435): > 100 µM (inactive)
GI50 (MDA-N): > 100 µM (inactive)
GI50 (MOLT-4): > 100 µM (inactive)
GI50 (Malme-3M): > 100 µM (inactive)
GI50 (NCI-H226): > 100 µM (inactive)
GI50 (NCI-H23): > 100 µM (inactive)
GI50 (NCI-H522): > 100 µM (inactive)
GI50 (NCI/ADR-RES): > 100 µM (inactive)
GI50 (OVCAR-3): > 100 µM (inactive)
GI50 (OVCAR-5): > 100 µM (inactive)
GI50 (OVCAR-8): > 100 µM (inactive)
GI50 (PC-3): > 100 µM (inactive)
GI50 (RPMI-8226): > 100 µM (inactive)
GI50 (RXF 393): > 100 µM (inactive)
GI50 (SF-295): > 100 µM (inactive)
GI50 (SF-539): > 100 µM (inactive)
GI50 (SK-MEL-28): > 100 µM (inactive)
GI50 (SK-MEL-2): > 100 µM (inactive)
GI50 (SK-MEL-5): > 100 µM (inactive)
GI50 (SN12C): > 100 µM (inactive)
GI50 (SNB-19): > 100 µM (inactive)
GI50 (SNB-75): 76.4 µM (inactive)
GI50 (SR): > 100 µM (inactive)
GI50 (SW-620): > 100 µM (inactive)
GI50 (U-251): > 100 µM (inactive)
GI50 (UACC-257): > 100 µM (inactive)
GI50 (UACC-62): > 100 µM (inactive)
GI50 (UO-31): > 100 µM (inactive)
